In patent US20100048729A1, “Composition based on xanthoxyline and its use in cosmetic” (PIERRE FABRE DERMO-COSMETIQUE, priority 2006, published 2010):

Columns and labels:
3T3F442A preadipocytes [1] = assay: Adipocyte differentiation: triglyceride accumulation (Adipored) in differentiated 3T3F442A cells; type: cell-based; conditions: 168 h, 0.3 μg/ml, 7 days differentiation, FIG. 2, read-out: inhibition (accumulation of triglycerides), optimum activity
Description: The Applicant has studied on the one hand the effect of a dry extract of Zanthoxylum bungeanum, and on the other hand the effect of xanthoxyline, on the process of adipocyte differentiation and proliferation. […] 3T3F442A prepadipocytes are capable of differentiating into adipocytes in the presence of insulin, 3-isobutyl-1-methylxanthine and dexamethasone (the Journal of Pharmacology and Experimental Therapeutics: RIVAL Y., 2004, 311(2): 467-475). […] 3T3F442A cells are cultured in DMEM medium (GIBCOBRL, ref 32430-027) containing 10% foetal calf serum at 37° C., 5% CO2 in a humid atmosphere. They are seeded at 5000 cells per well (96-well plate). […] The visualisation and quantification of intracellular lipid vacuoles in the differentiated cells are analysed using Adipored reagent, a fluorescent colorant specific to triglycerides (neutral and amphiphilic lipids) (Journal of Cell Biology: […]., 1985, 100: 965-973). The culture medium is removed and the cells are rinsed with phosphate buffer D-PBS (GIBCOBRL, ref 21300-058). Adipored reagent is then added. After incubation for 10 minutes at ambient temperature, the fluorescence is measured (excitation 485 nm, emission 530 nm). A histological analysis using a confocal Laser microscope (ZEISS LSM 410 Invert Laser scan Microscope) is also carried out at 543 nm.

Candida albicans = conditions: literature; cited from earlier work
Penicillium expansum = conditions: literature; cited from earlier work
[2] = tested on: pathogenic fungi such as Trichophyton; conditions: literature; cited from earlier work
[3] = tested on: gram-positive and gram-negative bacteria; conditions: literature; cited from earlier work
3T3F442A preadipocytes [4] = conditions: adipocyte differentiation model over a long culture period; literature; cited from earlier work

Row | Compound | inhibition at 0.3 µg/mL (3T3F442A preadipocytes [1]) [%] | Anti-fungal activity (Candida albicans) | Anti-fungal activity (Penicillium expansum) | Anti-fungal activity [2] | Anti-bacterial activity [3] | inhibition of the accumulation of triglycerides (3T3F442A preadipocytes [4])
1 | COc1cc(O)c(C(C)=O)c(OC)c1 [Xanthoxyline, 4,6-dimethoxy-2-hydroxyacetophenone] | 12 | moderate | moderate | moderate | mediocre | 
2 | TNFα |  |  |  |  |  | known to inhibit the accumulation of triglycerides
